Measurements from patent publication US20250064841A1, “Aqueous Composition Comprising Avermectins” (HWI Pharma Services GmbH, priority 2022, published 2025).

Assays:
SARS-Covid 2 virus = details: cited Monash lab experiments; cited from earlier work
rats = test: Histopathological examination of nostrils, nasal cavity and pharynx (local tolerability); format: in vivo; details: dose as high as 12.5 mg/kg in rats, intranasal
Source text: Subsequent to the last blood sampling animals were sacrificed by induction of a deep anesthesia with isoflurane followed by rapid exsanguinations. Then both nostrils and nasal cavity including pharynx were collected from all animals and preserved in neutral buffered formaldehyde (4%) for histopathological examination. Afterwards, tissues for the histopathological investigation were trimmed and embedded in paraplast®. The slides were HE (hematoxylin and eosin)-stained and histopathologically examined.

[1] = Particle size distribution (PSD) by laser diffraction, Malvern Mastersizer 2000/3000; format: physicochemical
Protocol: The mean particle size distribution is preferably obtained by laser diffraction. In a laser diffraction measurement, a laser beam passes through a dispersed particulate sample and the angular variation in intensity of the scattered light is measured. Large particles scatter light at small angles relative to the laser beam and small particles scatter light at large angles. The angular scattering intensity data is then analyzed to calculate the size of the particles that created the scattering pattern using the Mie theory of light scattering. The particle size is reported as a volume equivalent sphere diameter. The folded optical design in the Mastersizer 3000 (from Malvern Panalytical), which was in particular used for the measurements, provides a particle size range from 10 nm up to 3.5 mm using a single optical measurement path. The Mastersizer 3000 uses a sequential combination of measurements with red and blue light sources to measure across the entire particle size range.
The pharmaceutically active agent is grinded in a mortar/pestle system to the appropriate particles size prior to its use. Afterwards the Particles Size Distribution (PSD) is measured using a Malvern Master Sizer 3000. The samples after grinding are stored in tightly closed brown glass bottles.
The pharmaceutically active agent is micronised to the desired particles size using a jet mill (e.g. from SpiraNo 100 from MCKO, Germany) and screw dosing system (e.g. ZD 9 from Three-Tec Ltd., Seon, Switzerland). The diameter of the injection nozzle is selected at about 6 mm, the milling gas pressure about 2 bar, the milling temperature is about 18° C. The duration of the process is about 5-10 minutes depending on the particle size of the non-micronised active agent. Afterwards the PSD is measured with a Malvern Master Sizer 3000. The samples after micronisation are stored in tightly closed brown glass bottles.
Afterwards the PSD is measured with a Malvern Master Sizer 3000. In addition, the Zetapotential, an index for the stability of the multiparticulate suspensions is measured using a Zeta Sizer (e.g. Nano ZS) from Malvern Instruments (Dynamic Laser diffraction).
In some embodiments, the PSD of the pharmaceutically active agent, provided for the preparation of its multiparticulate suspension according to procedure 1 and procedure 2 (grinded/micronised), was measured using a Malvern Mastersizer 2000 or 3000 (in water as dispersion medium, stirrer speed 1500 rpm, Mie presentation) to give the following results:
In some embodiments, the PSD of the pharmaceutically active agent in multiparticulate suspension prepared according to procedure 3 (wet ball milling with Delta Vita 1), procedure 4 (wet ball milling Getzmann/Frewitt), procedure 5 (bulk microsuspension) and procedure 6 (final product) was measured using a Malvern Mastersizer 2000 or 3000 (in water as dispersion medium, stirrer speed 1500 rpm, Mie presentation).

In the case of ivermectin, the “activity against SARS-Covid 2 virus” value (SARS-Covid 2 virus) is listed as “active” and the “tolerability of the active ingredient” value (rats) is listed as “well tolerated”.

ivermectin [05KB21.HM00155] showed a D10 ([1]; API batch after grinding) of 2.02 μm, a D50 ([1]; API batch after grinding) of 6.89 μm and a D90 ([1]; API batch after grinding) of 32.0 μm.

Work on ivermectin [05KB21.HM00170-] yielded a D10 ([1]; API batch after micronisation) of 0.97 μm, a D50 ([1]; API batch after micronisation) of 2.22 μm and a D90 ([1]; API batch after micronisation) of 4.35 μm.
